Test [1] has as its system HOP-62. In words: NCI-60 cytotoxicity, HOP-62. The settings on record: Homo sapiens, HOP-62, read-out: Cytotoxicity (GI50) Lung HOP-62.
The target in test [2] is Tdp1 (Homo sapiens, UniProt Q9NUW8). In words: Recombinant Tdp1 assay. It counts as biochemical.
Test [3] has as its system SN12C. In words: NCI-60 cytotoxicity, SN12C. The settings on record: Homo sapiens, read-out: Cytotoxicity (GI50) Renal SN12C.
Test [4] relates to OVCAR-3. In words: NCI-60 cytotoxicity, OVCAR-3. The settings on record: Homo sapiens, OVCAR-3, read-out: Cytotoxicity (GI50) Ovarian Ovcar-3.
In test [5] the test system is SF-539. In words: NCI-60 cytotoxicity, SF-539. The settings on record: Homo sapiens, SF-539, read-out: Cytotoxicity (GI50) CNS SF-539.
Test [6] has as its system HCT-116. In words: NCI-60 cytotoxicity, HCT-116. It is filed as cell-based. The note with it: Homo sapiens, single determinations, Table 2, read-out: Cytotoxicity (GI50) Colon HCT-116.
Test [7] deals with UACC-62. In words: NCI-60 cytotoxicity, UACC-62. The settings on record: Homo sapiens, UACC-62, read-out: Cytotoxicity (GI50) Melanoma UACC-62.
Test [8] concerns DU-145. In words: NCI-60 cytotoxicity, DU-145. It counts as cell-based. The settings on record: Homo sapiens, single determinations, Table 2, read-out: Cytotoxicity (GI50) Prostate DU-145.
The test system of test [9] is NCI-60 panel of human cancer cell lines. In words: NCI-60 screen, mean graph midpoint over all cell lines. The note with it: Homo sapiens, read-out: Cytotoxicity (GI50) MGM.
Test [10] relates to MCF-7. In words: NCI-60 cytotoxicity, MCF-7. The note with it: Homo sapiens, MCF7, read-out: Cytotoxicity (GI50) Breast MCF-7.
Test [11] deals with T1, recombinant human TDP2 (Homo sapiens, UniProt O95551).
T1 sequence (O95551 1-362): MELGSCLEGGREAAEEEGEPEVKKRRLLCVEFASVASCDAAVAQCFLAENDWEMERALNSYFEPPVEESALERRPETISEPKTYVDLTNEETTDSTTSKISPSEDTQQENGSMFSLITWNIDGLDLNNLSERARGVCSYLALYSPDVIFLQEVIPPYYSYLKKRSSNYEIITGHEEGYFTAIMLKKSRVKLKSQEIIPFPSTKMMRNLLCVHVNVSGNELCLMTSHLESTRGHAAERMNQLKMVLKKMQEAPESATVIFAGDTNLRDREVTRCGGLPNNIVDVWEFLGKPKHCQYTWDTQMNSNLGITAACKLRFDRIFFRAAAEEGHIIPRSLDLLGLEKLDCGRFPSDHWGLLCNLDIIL
In words: Recombinant Tdp2 assay. It is filed as biochemical.
Protocol: TDP2 reactions were carried out as described previously with the following modifications. […] Reactions were terminated and treated similarly to whole-cell extract and recombinant Tdp1 reactions (see previous paragraph).

Test [12] addresses T2, Top1 (Homo sapiens, UniProt P11387).
T2 sequence (P11387 1-765): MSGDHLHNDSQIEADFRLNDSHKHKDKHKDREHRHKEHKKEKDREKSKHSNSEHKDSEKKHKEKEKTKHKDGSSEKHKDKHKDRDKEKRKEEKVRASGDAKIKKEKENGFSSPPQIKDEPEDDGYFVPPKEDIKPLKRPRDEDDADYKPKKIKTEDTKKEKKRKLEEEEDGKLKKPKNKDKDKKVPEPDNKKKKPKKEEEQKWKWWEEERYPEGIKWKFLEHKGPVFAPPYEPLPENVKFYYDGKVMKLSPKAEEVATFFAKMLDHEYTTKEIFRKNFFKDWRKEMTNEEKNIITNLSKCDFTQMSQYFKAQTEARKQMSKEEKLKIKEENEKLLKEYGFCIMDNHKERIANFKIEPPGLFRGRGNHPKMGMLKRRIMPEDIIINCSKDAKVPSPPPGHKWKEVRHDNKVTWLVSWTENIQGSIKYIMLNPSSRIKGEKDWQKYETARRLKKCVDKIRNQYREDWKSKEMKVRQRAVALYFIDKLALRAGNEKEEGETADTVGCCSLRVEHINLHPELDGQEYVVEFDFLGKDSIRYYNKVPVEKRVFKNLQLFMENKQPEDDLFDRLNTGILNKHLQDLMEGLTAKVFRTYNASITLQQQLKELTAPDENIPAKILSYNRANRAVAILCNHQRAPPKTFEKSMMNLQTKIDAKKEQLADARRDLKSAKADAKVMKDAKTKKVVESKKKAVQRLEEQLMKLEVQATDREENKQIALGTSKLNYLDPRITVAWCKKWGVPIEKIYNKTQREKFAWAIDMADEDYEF
In words: Top1-mediated DNA cleavage assay. It is filed as biochemical. The arrangement: Top1 inhibitory activity level / Top1 inhibitory activity score: key to the marks not given beside the values.

[13] abbreviates: determined in duplicate, Table 2, read-out: Enzyme Inhibitory Activity Tdp1 (IC50).
Where [14] appears, read: DNA cleavage relative to 1 μM MJ-III-65 (19) and 1 μM camptothecin (18), Table 2.
Setting [15] is: determined in duplicate, Table 2, read-out: Enzyme Inhibitory Activity Tdp2 (IC50).

Read-outs that look alike come from different tables or passages of the source.

Chain of Tdp1 (Q9NUW8 whole entry): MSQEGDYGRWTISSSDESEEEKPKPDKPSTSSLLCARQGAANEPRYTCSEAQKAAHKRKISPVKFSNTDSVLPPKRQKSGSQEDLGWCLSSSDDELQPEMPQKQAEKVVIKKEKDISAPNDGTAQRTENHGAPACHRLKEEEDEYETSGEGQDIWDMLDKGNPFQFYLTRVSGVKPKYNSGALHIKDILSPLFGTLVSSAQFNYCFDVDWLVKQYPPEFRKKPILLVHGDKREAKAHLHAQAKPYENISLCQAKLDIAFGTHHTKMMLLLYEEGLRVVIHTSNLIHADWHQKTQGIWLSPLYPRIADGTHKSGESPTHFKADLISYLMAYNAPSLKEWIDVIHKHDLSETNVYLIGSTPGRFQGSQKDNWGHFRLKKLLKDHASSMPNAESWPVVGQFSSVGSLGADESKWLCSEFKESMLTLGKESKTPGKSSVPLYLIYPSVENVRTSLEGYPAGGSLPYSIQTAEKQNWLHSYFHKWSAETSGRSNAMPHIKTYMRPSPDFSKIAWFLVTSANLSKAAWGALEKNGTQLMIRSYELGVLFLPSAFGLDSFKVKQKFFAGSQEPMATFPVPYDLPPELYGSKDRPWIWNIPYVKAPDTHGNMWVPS

For `CCNCCCn1c2c(c3ccc(Cl)cc3c1=O)C(=O)c1cc(OC)cnc1-2` [Compound 16h, 3-Chloro-9-methoxy-6-(3-(ethylamino)propyl)-5H-pyrido[3′,2′:4,5]cyclopenta[1,2-c]isoquinoline-5,11(6H)-dione], the GI50 was determined as 122 nM in test [1]; 675 nM in test [3]; 2130 nM in [4]; 506 nM in [5]; 203 nM in test [6]; 532 nM in test [7]. Also, the results for the GI50 in test [8], in [9] and in test [10] were 208 nM, 426 nM and below 10 nM, respectively. In addition, the IC50 in [2] (setting [13]) is 22200 ± 6400 nM.

In the case of `COc1cc2c3c(n(CCCNCCO)c(=O)c2cc1OC)-c1cc2c(cc1C3=O)OCO2` [Compound 19, reference compound], the IC50 in [11] (semiquantitative scale, in duplicate, Table 1, read-out: Enzyme Inhibitory Activity Tdp2) lay within 1000 to 12000 nM; in test [2] (semiquantitative scale, in duplicate, Table 1, read-out: Enzyme Inhibitory Activity Tdp1), 12000 to 111000 nM. The GI50 in test [1] was 20 nM; in test [3] it was below 10 nM; in [4], 500 nM; in test [5], 40 nM; in test [7], 30 nM; in test [9], 210 nM. Besides, the GI50 in [10] is below 10 nM. Also, the “Enzyme Inhibitory Activity Top1” value in test [12] is on record as “++++”.

As to `COc1cnc2c(c1)C(=O)c1c-2n(CCCN2CCNCC2)c(=O)c2cc(F)ccc12` [Compound 17e, 3-Fluoro-9-methoxy-6-(3-(piperazin-1-yl)propyl)-5H-pyrido[3′,2′:4,5]cyclopenta-[1,2-c]isoquinoline-5,11(6H)-dione], the IC50 is 107000 ± 5200 nM in test [11] (read-out: Enzyme Inhibitory Activity Tdp2 (IC50)) and above 111000 nM in test [2] (setting [13]). The GI50 in test [1] amounted to 66 nM; in [3], 80 nM; in test [4], 335 nM; in test [5], 532 nM; in test [6] it was 91 nM; in test [7], 1260 nM. For the same molecule, the GI50 was determined as 62 nM in [8], 218 nM in test [9] and 34 nM in test [10]. Further, the “Enzyme Inhibitory Activity Top1” value in test [12] (setting [14]) is given as “+”.

On to `COc1cnc2c(c1)C(=O)c1c-2n(CCCN2CCOCC2)c(=O)c2cc(F)ccc12` [Compound 17a, 3-Fluoro-9-methoxy-6-(3-morpholinopropyl)-5H-pyrido[3′,2′:4,5]cyclopenta[1,2c]-isoquinoline-5,11(6H)-dione], for which the IC50 in test [11] (setting [15]) and in [2] (setting [13]) was above 111000 nM in each case. Moreover, the concentration for 50% growth inhibition (GI50) in test [1] turned out to be 187 nM; in test [3] it was 320 nM; in [4], 250 nM; in [5], 228 nM; in test [6], 115 nM; in [7], 235 nM. Also, the results for the GI50 in test [8], in test [9] and in test [10] were 341 nM, 269 nM and 44 nM, respectively. In addition, the “Enzyme Inhibitory Activity Top1” value in [12] (setting [14]) was “+++”.

With `COc1cnc2c(c1)C(=O)c1c-2n(CCCN2CCCC2)c(=O)c2cc(Cl)ccc12` [Compound 16i, 3-Chloro-9-methoxy-6-(3-(pyrrolidin-1-yl)propyl)-5H-pyrido[3′,2′:4,5]cyclopenta[1,2-c]isoquinoline-5,11(6H)-dione], the IC50 in test [2] (read-out: Enzyme Inhibitory Activity Tdp1 (IC50)) came out at 27500 ± 600 nM.

Turning to `COc1cnc2c(c1)C(=O)c1c-2n(CCCN2CCOCC2)c(=O)c2cc(Cl)ccc12` [Compound 16a, 3-Chloro-9-methoxy-6-(3-morpholinopropyl)-5H-pyrido[3′,2′:4,5]cyclopenta[1,2-c]isoquinoline-5,11(6H)-dione], the IC50 in [11] (setting [15]) and in test [2] (setting [13]) was above 111000 nM in each case. Besides, the GI50 in test [1] was determined as 270 nM; in test [4], 780 nM; in test [5], 230 nM; in test [6] it was 160 nM; in test [7], 180 nM; in test [8], 410 nM. The GI50 in test [9] was 100 nM; in [10] it was 90 nM. Moreover, the “Enzyme Inhibitory Activity Top1” value in test [12] (setting [14]) is on record as “+++”.

As for `COc1cnc2c(c1)C(=O)c1c-2n(CCCN2CCC(O)CC2)c(=O)c2cc(Cl)ccc12` [Compound 16d, 3-Chloro-6-(3-(4-hydroxypiperidin-1-yl)propyl)-9-methoxy-5H-pyrido[3′,2′:4,5]cyclopenta-[1,2-c]isoquinoline-5,11(6H)-dione], the IC50 in [11] (setting [15]) was above 111000 nM; in test [2] (setting [13]) it was 14000 ± 1000 nM. Besides, the GI50 in test [1] is 94 nM; in test [4] it was 1420 nM; in test [5], 430 nM; in test [6], 98 nM; in [7], 190 nM; in test [8], 270 nM. The figures for the GI50 in test [9] and in test [10] were 660 nM and 42 nM, respectively. For the same molecule, in test [12] (setting [14]), the “Enzyme Inhibitory Activity Top1” value is given as “++++”. Besides, in [12] (running text b88 on series 2, tested at 0.1, 1, 10 and 100 μM), the “Top1 inhibitory activity score” value is “++++”.

With `CC[C@@]1(O)C(=O)OCc2c1cc1n(c2=O)Cc2cc3ccccc3nc2-1` [Compound 18, camptothecin, reference compound], the IC50 in test [11] and in [2] was above 111000 nM throughout. The GI50 is below 10 nM in test [1]; 20 nM in test [3]; below 10 nM in test [5]; below 10 nM in test [7]; 40 nM in [9]; 13 nM in [10]. The “Enzyme Inhibitory Activity Top1” value in test [12] (DNA cleavage relative to 1 μM MJ-III-65 (19) and 1 μM camptothecin (18), Table 1) was “++++”.

On to `COc1cnc2c(c1)C(=O)c1c-2n(CCCn2ccnc2)c(=O)c2cc(Cl)ccc12` [Compound 16b, 6-(3-(1H-Imidazol-1-yl)propyl)-3-chloro-9-methoxy-5H-pyrido[3′,2′:4,5]cyclopenta[1,2-c]isoquinoline-5,11(6H)-dione], for which the IC50 in [11] (setting [15]) and in test [2] (setting [13]) was above 111000 nM throughout. Moreover, the GI50 was 20 nM in test [1]; 120 nM in test [4]; 38 nM in test [5]; 14 nM in test [6]; 28 nM in test [7]; 43 nM in test [8]. In addition, the GI50 is 63 nM in test [9] and below 10 nM in test [10]. The “Enzyme Inhibitory Activity Top1” value in test [12] (setting [14]) is on record as “+++”.

Regarding `COc1cnc2c(c1)C(=O)c1c-2n(CCCN2CCN(C)CC2)c(=O)c2cc(Cl)ccc12` [Compound 16j, 3-Chloro-9-methoxy-6-(3-(4-methylpiperazin-1-yl)propyl)-5H-pyrido[3′,2′:4,5]cyclopenta[1,2-c]isoquinoline-5,11(6H)-dione], the GI50 in [1] amounted to 950 nM; in test [3], 10200 nM; in [4], 15100 nM; in [5], 2150 nM; in [6] it was 980 nM; in test [7] it was 1810 nM. The GI50 was determined as 3180 nM in test [8], 2950 nM in test [9] and 487 nM in test [10]. The “Enzyme Inhibitory Activity Top1” value in test [12] (setting [14]) was “+”. In test [2] (setting [13]), the IC50 is above 111000 nM.
